This note sets out measurements from BindingDB's records for doi:10.1021/jm501395b (University of Strasburg, 2015).

Experiment [1] addresses T1, Oxytocin receptor (Homo sapiens, UniProt P30559).
T1 sequence (P30559 whole entry): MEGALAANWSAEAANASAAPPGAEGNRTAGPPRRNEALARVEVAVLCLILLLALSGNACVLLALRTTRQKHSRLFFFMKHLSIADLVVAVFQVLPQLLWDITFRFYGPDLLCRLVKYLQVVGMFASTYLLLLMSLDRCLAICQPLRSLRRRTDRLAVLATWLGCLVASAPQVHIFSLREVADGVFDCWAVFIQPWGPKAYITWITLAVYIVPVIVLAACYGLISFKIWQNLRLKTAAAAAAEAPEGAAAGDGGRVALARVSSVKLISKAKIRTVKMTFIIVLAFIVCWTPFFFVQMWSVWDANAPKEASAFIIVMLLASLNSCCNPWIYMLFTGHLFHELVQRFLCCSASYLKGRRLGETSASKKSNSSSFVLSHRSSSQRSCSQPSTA
Briefly: Binding affinity to SNAP-tagged oxytocin receptor (unknown origin) expressed in HEK293 cells assessed as dissociation constant after 5 to 120 mins by TR-FRET assay. Background: TR-FRET usually uses a lanthanide donor and a delayed reading to cut background.

The target in experiment [2] is T1, Oxytocin receptor. The experiment is described as follows: Binding affinity to SNAP-tagged oxytocin receptor (unknown origin) expressed in HEK293 cells assessed as association constant after 5 to 120 mins by TR-FRET assay. As to conditions: read-out: kon (M-1-s-1).

As usually defined, the koff is the first-order rate constant of dissociation. What is called kon is the rate constant with which the complex forms. With `COc1ccc(-n2c(COCCOCCOCCOCCNC(=O)CCCCCNC(=O)c3ccc(-c4c5ccc(=O)cc-5oc5cc(O)ccc45)c(C(=O)O)c3)nnc2N2CC(Oc3ccc(F)cc3Cl)C2)cn1`, on Oxytocin receptor [1], the dissociation rate constant (koff) was found to be 0.000315 s⁻¹. Besides, the kon at Oxytocin receptor [2] came to 59500 M⁻¹ s⁻¹.

Take `CCN1\C(=C/C=C/C=C/C2=[N+](CC)c3cc(S(=O)(=O)[O-])ccc3C2(C)C)C(C)(CCCC(=O)NCCOCCOCCOCCOCc2nnc(N3CC(Oc4ccc(F)cc4Cl)C3)n2-c2ccc(OC)nc2)c2cc(S(=O)(=O)O)ccc21` (centres undefined): on Oxytocin receptor [1], the koff was 0.000182 s⁻¹. Also, the kon on Oxytocin receptor [2] came out at 67200 M⁻¹ s⁻¹.
